ChEMBL document CHEMBL3813668, “Design, synthesis, and biological evaluation of anti-EV71 agents” (Bioorg Med Chem Lett, 2016)

Key:
[1] = Metabolic stability in mouse plasma assessed as compound remaining after 2 hrs; assay type: ADME, cell-free; details: read-out: Stability
rhinovirus B14 = assay: Antiviral activity against HRV-14 infected in H1HeLa cells after 2 days by XTT assay; assay type: functional, organism-based; details: Rhinovirus B, H1-HeLa, 48 h
Enterovirus A71 = assay: Antiviral activity against Enterovirus 71/Shenzhen/120F1/09 infected in human RD cells assessed as reduction in virus induced cell death after 72 hrs by CCK-8 assay; assay type: functional, organism-based; details: Enterovirus A, Shenzhen/120F1/09, RD
[2] = Half life in mouse at 2 mg/kg, iv; assay type: ADME, organism-based; details: in vivo
[3] = Clearance in mouse at 2 mg/kg, iv; assay type: ADME, organism-based; details: in vivo
[4] = Volume of distribution in mouse at 2 mg/kg, iv; assay type: ADME, organism-based; details: in vivo
[5] = AUC in mouse at 2 mg/kg, iv; assay type: ADME, organism-based; details: in vivo
[6] = Half life in mouse at 5 mg/kg, ip; assay type: ADME, organism-based; details: in vivo
[7] = Cmax in mouse at 5 mg/kg, ip; assay type: ADME, organism-based; parameters: dose 5 mg/kg, route intraperitoneal; details: in vivo
[8] = AUC in mouse at 5 mg/kg, ip; assay type: ADME, organism-based; details: in vivo
[9] = Bioavailability in mouse at 5 mg/kg, ip; assay type: ADME, organism-based; details: in vivo

Compound	remaining at 2 h [1] [%]	EC50 (Enterovirus A71) [nM]	further results
CCOC(=O)/C=C/[C@H](C[C@@H]1CCNC1=O)NC(=O)[C@H](Cc1ccc(F)c(F)c1)n1ccc2ccn(Cc3ccccc3)c2c1=O	–	> 100000	–
Cc1cc(C(=O)N[C@H](C(=O)C[C@@H](Cc2ccc(F)cc2)C(=O)N[C@H](/C=C/C(=O)N2CCOCC2)C[C@@H]2CCNC2=O)C(C)C)no1	88	8920	–
CCOC(=O)/C=C/[C@H](C[C@@H]1CCNC1=O)NC(=O)[C@H](Cc1ccc(F)c(F)c1)n1ccc2ccn(C)c2c1=O	–	> 100000	–
CCOC(=O)/C=C/[C@H](C[C@@H]1CCNC1=O)NC(=O)[C@H](Cc1ccccc1)n1ccc2cc[nH]c2c1=O	–	–	EC50 (rhinovirus B14): 1270 nM
Cc1cc(C(=O)N[C@H](C(=O)C[C@@H](Cc2ccc(F)cc2)C(=O)N[C@H](/C=C2\CC(C)OC2=O)C[C@@H]2CCNC2=O)C(C)C)no1 (stereo not given in full)	81	220	–
Cc1cc(C(=O)N[C@H](C(=O)C[C@@H](Cc2ccc(F)cc2)C(=O)N[C@H](/C=C/S(C)(=O)=O)C[C@@H]2CCNC2=O)C(C)C)no1	–	1510	–
Cc1cc(C(=O)N[C@H](C(=O)C[C@@H](Cc2ccc(F)cc2)C(=O)N[C@H](/C=C/C(=O)N2CCC(F)(F)C2)C[C@@H]2CCNC2=O)C(C)C)no1	54	760	–
Cc1cc(C(=O)N[C@H](C(=O)C[C@@H](Cc2ccc(F)cc2)C(=O)N[C@H](/C=C/C(=O)N2CCC(F)(F)CC2)C[C@@H]2CCNC2=O)C(C)C)no1	63	1240	–
CCOC(=O)/C=C/[C@H](C[C@@H]1CCNC1=O)NC(=O)[C@H](Cc1ccc(F)c(F)c1)n1ccc2ccn(CC3CC3)c2c1=O	–	> 100000	–
Cc1cc(C(=O)N[C@H](C(=O)C[C@@H](Cc2ccc(F)cc2)C(=O)N[C@H](/C=C2\CCOC2=O)C[C@@H]2CCNC2=O)C(C)C)no1	88	28	half-life [2]: 12 min; half-life [6]: 10.8 min; Cmax [7]: 2570 nM; clearance [3]: 130 mL/min/kg; Vd [4]: 1.6 L/kg; AUC [5]: 0.444 µM·h; AUC [8]: 1.28 µM·h; bioavailability [9]: 115%

Continued, in another order:

remaining at 2 h [1] [%]	Compound	EC50 (Enterovirus A71) [nM]	further results
1.4	CCOC(=O)/C=C/[C@H](C[C@@H]1CCNC1=O)NC(=O)[C@H](Cc1ccc(F)cc1)n1cccc(NC(=O)c2cc(C)on2)c1=O	–	EC50 (rhinovirus B14): 2 nM
0	CCOC(=O)/C=C/[C@H](C[C@@H]1CCNC1=O)NC(=O)[C@H](Cc1ccc(F)c(F)c1)n1ccc2cc(-c3ccccc3F)[nH]c2c1=O	1020	–
26	Cc1cc(C(=O)N[C@H](C(=O)C[C@@H](Cc2ccc(F)cc2)C(=O)N[C@H](/C=C/C(=O)N2CCc3cc(Cl)ccc32)C[C@@H]2CCNC2=O)C(C)C)no1	180	–
2.4	Cc1cc(C(=O)N[C@H](C(=O)C[C@@H](Cc2ccc(F)cc2)C(=O)N[C@H](/C=C/C(=O)OCc2ccccc2)C[C@@H]2CCNC2=O)C(C)C)no1	140	–
77	O=C1OCC/C1=C\[C@H](C[C@@H]1CCNC1=O)NC(=O)[C@H](Cc1ccc(F)c(F)c1)n1ccc2cc(Br)[nH]c2c1=O	2010	–
24	Cc1cc(C(=O)N[C@H](C(=O)C[C@@H](Cc2ccc(F)cc2)C(=O)N[C@H](/C=C/S(=O)(=O)c2nccs2)C[C@@H]2CCNC2=O)C(C)C)no1	520	–
82	Cc1cc(C(=O)N[C@H](C(=O)C[C@@H](Cc2ccc(F)cc2)C(=O)N[C@H](/C=C/C(=O)N2CCCC2)C[C@@H]2CCNC2=O)C(C)C)no1	12000	–
80	O=C1OCC/C1=C\[C@H](C[C@@H]1CCNC1=O)NC(=O)[C@H](Cc1ccc(F)c(F)c1)n1ccc2cc[nH]c2c1=O	13100	–
5.3	Cc1cc(C(=O)N[C@H](C(=O)C[C@@H](Cc2ccc(F)cc2)C(=O)N[C@H](/C=C/C(=O)OC2CCC2)C[C@@H]2CCNC2=O)C(C)C)no1	260	–
0.9	CCOC(=O)/C=C/[C@H](C[C@@H]1CCNC1=O)NC(=O)[C@H](Cc1ccc(F)c(F)c1)n1ccc2ccn(-c3ccccn3)c2c1=O	> 100000	–
92	O=C1OCC/C1=C\[C@H](C[C@@H]1CCNC1=O)NC(=O)[C@H](Cc1ccc(F)c(F)c1)n1ccc2cc(-c3ccccc3F)[nH]c2c1=O	340	half-life [2]: 75.6 min; clearance [3]: 140 mL/min/kg; Vd [4]: 8.8 L/kg; AUC [5]: 0.25 µM·h
0.3	CCOC(=O)/C=C/[C@H](C[C@@H]1CCNC1=O)NC(=O)[C@H](Cc1ccc(F)c(F)c1)n1ccc2cc(Br)[nH]c2c1=O	500	–
1	CCOC(=O)/C=C/[C@H](C[C@@H]1CCNC1=O)NC(=O)[C@H](Cc1ccc(F)c(F)c1)n1ccc2cc[nH]c2c1=O	3560	–
2.7	CCOC(=O)/C=C/[C@H](C[C@@H]1CCNC1=O)NC(=O)[C@@H](CC(=O)[C@@H](NC(=O)c1cc(C)on1)C(C)C)Cc1ccc(F)cc1 [RUPINTRIVIR]	9	–
